Test results from publication PMC3605731 (Current pharmaceutical design, 2012).
Like-named read-outs stand apart in the source and are kept apart here.

Columns and labels:
[1] = tested on: HIV-1 in GHOST cells; test: Virus inhibition assay; assay type: cell-based; conditions: 48 hours
[2] = tested on: GHOST cells
[3] = tested on: HIV-1 in HeLa cells; test: Virus inhibition assay; assay type: cell-based; conditions: 48 hours
[4] = tested on: HIV-1 RT K103N; conditions: FEP/MC, relative to efavirenz; cited from earlier work
[5] = tested on: HIV-1 RT Y188L; conditions: relative to efavirenz; cited from earlier work
[6] = tested on: HIV-1 RT L100I; conditions: FEP/MC, relative to nevirapine; cited from earlier work
[7] = tested on: HIV-1 RT Y181C; conditions: relative to nevirapine; cited from earlier work
[8] = tested on: HIV-1 RT Y181C; conditions: FEP/MC, relative to nevirapine; cited from earlier work
[9] = tested on: HIV-1 RT K103N; conditions: relative to efavirenz; cited from earlier work
[10] = tested on: HIV-1 RT L100I; conditions: relative to nevirapine; cited from earlier work
[11] = tested on: HIV-1 RT Y188L; conditions: FEP/MC, relative to efavirenz; cited from earlier work
[12] = tested on: HIV-1 infected human MT-2 cells; conditions: infected MT-2 human T-cell assay; cited from earlier work
[13] = tested on: HIV-1 protease; conditions: cited from earlier work
[14] = tested on: HIV-1 protease; conditions: cited from earlier work; remark: listed apart in the source

2,6-dichlorobenzamido-1H-indole [Compound 5]
HIV-1 inhibition (reduction in viral infectivity) ([1]; 0.2 μM): no appreciable inhibition
HIV-1 inhibition ([1]; 10 μM): 30%
viability ([2]; 10 μM): 81%
viability ([2]; 50 μM): 46%
HIV-1 inhibition (reduction in viral infectivity) ([3]; 0.2 μM): no appreciable inhibition
HIV-1 inhibition ([3]; 10 μM): 30%

Cc1cc(C#N)cc(C)c1Oc1nc(Nc2ccc(C#N)cc2)nc(N)c1Br [etravirine]
ΔΔG (computed), K103N [4]: -2.4 kcal/mol
ΔΔG (experimental), Y188L [5]: -2.07 ± 0.23 kcal/mol
ΔΔG (predicted), L100I [6]: -0.9 kcal/mol
ΔΔG (experimental), Y181C [7]: -1.36 ± 0.28 kcal/mol
ΔΔG (predicted), Y181C [8]: -2.6 kcal/mol
ΔΔG (experimental), K103N [9]: -2.00 ± 0.40 kcal/mol
ΔΔG (experimental), L100I [10]: -2.36 ± 0.42 kcal/mol
ΔΔG (computed), Y188L [11]: -2.4 kcal/mol

Cc1ccnc2c1NC(=O)c1cccnc1N2C1CC1 [nevirapine]
EC50 [12]: 110 nM

Nc1noc(C2CN3CCC2C3)n1 (stereo not shown) [oxadiazole]
EC50 [12]: inactive

Ac-Ser-Leu-Asn-(Phe-Hea-Pro)-Ile-Val-OMe [JG-365]
ΔΔGbind (experimental), heptapeptide → hexapeptide ([13]; from Ki values for an equilibrium mixture of R and S configurations): 3.8 ± 1.3 kcal/mol
ΔΔGbind (calculated), heptapeptide → hexapeptide (deletion of valine) ([14]; FEP/MD, averaged for R and S): 3.3 ± 1.1 kcal/mol

Ac-Thr-Ile-Nle-ψ [CH2-NH]-Nle-Gln-Arg-NH2 [MVT-101]
decrease of binding, single Nle to Met mutation [14]: 0.7 kcal/mol

Ala-Ala-Phe[CH(OH)CH2]Gly-Val-Val-OMe [HEI]
ΔΔGbind (experimental), central hydroxyl S to R [13]: 2.6 kcal/mol
ΔΔGbind (computed), central hydroxyl S to R ([14]; FEP/MD): 3.37 ± 0.64 kcal/mol
predicted enhancement of binding, Gly to Nle mutation [14]: 1.7 kcal/mol
